Reference: patent US20240158446A1, “CYCLIC COMPOUND HAVING SELECTIVE INHIBITORY ACTION ON KRAS OVER HRAS AND NRAS” (CHUGAI SEIYAKU KABUSHIKI KAISHA, priority 2021, published 2024)
Read-outs that look alike come from different tables or passages of the source. Where a SMILES comes first, the peptide text is derived from it. Bridges are numbered along the chain shown (N, C = ends). [ ]: non-standard residue; d: D form. The star is where a group is joined. hPhe(3,5-F2-4-CF3) = N[C@@H](CCc1cc(F)c(C(F)(F)F)c(F)c1)C(=O)O; hPhe(3-Cl-4-CF3) = N[C@@H](CCc1ccc(C(F)(F)F)c(Cl)c1)C(=O)O; NPrPhe(4-CF3) = CCCN[C@@H](Cc1ccc(C(F)(F)F)cc1)C(=O)O; NPrPhe(4-Me) = CCCN[C@@H](Cc1ccc(C)cc1)C(=O)O; NMeGly(cPent) = CN[C@H](C(=O)O)C1CCCC1; αMeI = CC[C@H](C)[C@](C)(N)C(=O)O; NMeD = CN[C@@H](CC(=O)O)C(=O)O; NMeL = CN[C@@H](CC(C)C)C(=O)O; Morpholide = C1CN(*)CCO1; NMeA = CN[C@@H](C)C(=O)O; Ac5c = NC1(C(=O)O)CCCC1; Aze = O=C(O)[C@@H]1CCN1; NPrGly = CCCNCC(=O)O; NEtG = CCNCC(=O)O; Sar = CNCC(=O)O

Assays:
[1] = biological target: GDP-bound KRAS wild-type protein (Homo sapiens, UniProt P01116); test: Binding to KRAS by surface plasmon resonance (SPR), Single Cycle Kinetics; settings: GDP-bound KRAS wild-type protein, read-out: KRAS KD
GDP-bound KRAS wild-type protein, sequence (P01116 whole entry): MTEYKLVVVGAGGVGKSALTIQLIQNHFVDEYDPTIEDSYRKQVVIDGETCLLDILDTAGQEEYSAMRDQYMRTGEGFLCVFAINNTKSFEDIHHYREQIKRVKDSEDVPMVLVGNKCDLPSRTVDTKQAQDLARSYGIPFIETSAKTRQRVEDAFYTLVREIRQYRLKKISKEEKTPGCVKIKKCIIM

[2] = biological target: GDP-bound NRAS wild-type protein (Homo sapiens, UniProt P01111); test: Binding to NRAS by surface plasmon resonance (SPR), Single Cycle Kinetics; settings: for NRAS/KRAS (ratio of KD value for NRAS to KD value for KRAS) / NRAS/KRAS (ratio of KD value with respect to NRAS to KD value with respect to KRAS): SPR, GDP-bound NRAS wild-type protein vs GDP-bound KRAS wild-type protein
GDP-bound NRAS wild-type protein, sequence (P01111 whole entry): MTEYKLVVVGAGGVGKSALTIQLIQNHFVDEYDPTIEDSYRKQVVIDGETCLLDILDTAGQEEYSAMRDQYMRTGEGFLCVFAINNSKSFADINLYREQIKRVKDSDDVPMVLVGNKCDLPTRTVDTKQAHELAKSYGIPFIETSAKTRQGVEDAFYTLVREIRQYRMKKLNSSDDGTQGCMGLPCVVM

[3] = biological target: GDP-bound HRAS wild-type protein (Homo sapiens, UniProt P01112); test: Binding to HRAS by surface plasmon resonance (SPR), Single Cycle Kinetics; settings: for HRAS/KRAS (ratio of KD value for HRAS to KD value for KRAS) / HRAS/KRAS (ratio of KD value with respect to HRAS to KD value with respect to KRAS): SPR, GDP-bound HRAS wild-type protein vs GDP-bound KRAS wild-type protein
GDP-bound HRAS wild-type protein, sequence (P01112 whole entry): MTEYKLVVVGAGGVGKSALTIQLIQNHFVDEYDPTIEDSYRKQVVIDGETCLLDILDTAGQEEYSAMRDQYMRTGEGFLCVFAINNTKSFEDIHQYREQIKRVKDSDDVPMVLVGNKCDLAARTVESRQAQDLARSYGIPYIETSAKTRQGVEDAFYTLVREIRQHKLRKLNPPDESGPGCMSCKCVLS

[4] = SPR, Single Cycle Kinetics, 1:1 binding model
[5] = SPR Single Cycle Kinetics, 1:1 binding model

Kd ([1]; SPR, Single Cycle Kinetics) [nM]	Kd [1, 5] [nM]	SMILES	NRAS/KRAS (ratio of KD value for NRAS to KD value for KRAS) [2]	HRAS/KRAS (ratio of KD value for HRAS to KD value for KRAS) [3]	NRAS/KRAS (ratio of KD value with respect to NRAS to KD value with respect to KRAS) [2]	HRAS/KRAS (ratio of KD value with respect to HRAS to KD value with respect to KRAS) [3]	also measured
0.078		CCO[C@@H]1C[C@H]2C(=O)NC3(CCCC3)C(=O)N(C)[C@@H](C3CCCC3)C(=O)N(C)[C@H](C(=O)N3CCOCC3)CC(=O)N(C)[C@@H](CC)C(=O)N[C@@H]([C@@H](C)CC)C(=O)N(C)CC(=O)N(C)[C@H]3C[C@@H](C)CCN(C3=O)[C@@H](Cc3ccc(C(F)(F)F)cc3)C(=O)N(C)CC(=O)N[C@@H](CCc3cc(F)c(C(F)(F)F)c(F)c3)C(=O)N2C1 [PP1029]	C (A compound having a KD ratio of 0.1 or more and less than 3 is denoted as C)	B (a compound having 3 or more and less than 10 is denoted as B)			
0.53		CC[C@H](C)[C@@H]1NC(=O)[C@H](COC)N(C)C(=O)C[C@@H](C(=O)N2CCOCC2)N(C)C(=O)[C@H](C2CCCC2)N(C)C(=O)C2(CCC2)NC(=O)[C@@H]2CC(F)(F)CN2C(=O)[C@H](CCc2cc(F)c(C(F)(F)F)c(F)c2)NC(=O)CN(C)C(=O)[C@H](Cc2ccc(C(F)(F)F)cc2)N2CCCCC[C@@H](C2=O)N(C)C(=O)[C@@H]2CCN2C1=O [PP0866]	B (a compound having 3 or more and less than 10 is denoted as B)	B (a compound having 3 or more and less than 10 is denoted as B)			
	4	CCCN1C(=O)CN(C)C(=O)CN(C)C(=O)[C@H]([C@@H](C)CC)NC(=O)[C@H](CC(C)C)N(C)C(=O)C[C@@H](C(=O)N2CCOCC2)N(C)C(=O)[C@H](C2CCCC2)N(C)C(=O)[C@](C)([C@@H](C)CC)NC(=O)[C@@H]2CCCN2C(=O)[C@H](CCc2cc(F)c(C(F)(F)F)c(F)c2)NC(=O)CN(C)C(=O)[C@@H]1Cc1ccc(C(F)(F)F)cc1 [PP0757] ([NMeL]I[Sar][Sar][NPrPhe(4-CF3)][Sar][hPhe(3,5-F2-4-CF3)]P[αMeI][NMeGly(cPent)][NMeD]-Morpholide; lactam N-11)			B (a compound having 3 or more and less than 10 is denoted as B)	C (A compound having a KD ratio of 0.1 or more and less than 3 is denoted as C)	
	0.87	CCCN1CC(=O)NC2(CCCC2)C(=O)N(C)[C@@H](C2CCCC2)C(=O)N(C)[C@H](C(=O)N2CCOCC2)CC(=O)N(C)[C@@H](CC(C)C)C(=O)N[C@@H]([C@@H](C)CC)C(=O)N(C)CC(=O)N(C)CC(=O)N(CCC)[C@@H](Cc2ccc(C(F)(F)F)cc2)C(=O)N(C)CC(=O)N[C@@H](CCc2ccc(C(F)(F)F)c(Cl)c2)C1=O [PP0267] ([NMeL]I[Sar][Sar][NPrPhe(4-CF3)][Sar][hPhe(3-Cl-4-CF3)][NPrGly][Ac5c][NMeGly(cPent)][NMeD]-Morpholide; lactam N-11)	B (a compound having 3 or more and less than 10 is denoted as B)	B (a compound having 3 or more and less than 10 is denoted as B)			

Second part, the compound before the results:

SMILES	Kd ([1]; SPR, Single Cycle Kinetics) [nM]	Kd [1, 5] [nM]	NRAS/KRAS (ratio of KD value for NRAS to KD value for KRAS) [2]	HRAS/KRAS (ratio of KD value for HRAS to KD value for KRAS) [3]	NRAS/KRAS (ratio of KD value with respect to NRAS to KD value with respect to KRAS) [2]	HRAS/KRAS (ratio of KD value with respect to HRAS to KD value with respect to KRAS) [3]	also measured
CCO[C@@H]1C[C@H]2C(=O)NC3(CCC3)C(=O)N(C)[C@@H](C3CCCC3)C(=O)N(C)[C@H](C(=O)N3CCOCC3)CC(=O)N(C)[C@@H](CC(C)C)C(=O)N[C@@H]([C@@H](C)CC)C(=O)N(C)CC(=O)N(C)[C@H]3CC/C=C(/C)CN(C3=O)[C@@H](Cc3ccc(C(F)(F)F)cc3)C(=O)N(C)CC(=O)N[C@@H](CCc3cc(F)c(C(F)(F)F)c(F)c3)C(=O)N2C1 [PP1333]							Kd [1, 4]: 58 nM; NRAS/KRAS (ratio of KD value for NRAS to KD value for KRAS) ([2]; KD ratio class): C (A compound having a KD ratio of 0.1 or more and less than 3 is denoted as C); HRAS/KRAS (ratio of KD value for HRAS to KD value for KRAS) ([3]; KD ratio class): B (a compound having 3 or more and less than 10 is denoted as B)
CCO[C@@H]1C[C@H]2C(=O)NC3(CCC3)C(=O)N(C)[C@@H](C3CCCC3)C(=O)N(C)[C@H](C(=O)N3CCOCC3)CC(=O)N(C)[C@@H](CC)C(=O)N[C@@H]([C@@H](C)CC)C(=O)N(C)CC(=O)N(C)[C@H]3CC/C=C(/C)CN(C3=O)[C@@H](Cc3ccc(C(F)(F)F)cc3)C(=O)N(C)CC(=O)N[C@@H](CCc3cc(F)c(C(F)(F)F)c(F)c3)C(=O)N2C1 [PP1335]							Kd [1, 4]: 18 nM; NRAS/KRAS (ratio of KD value for NRAS to KD value for KRAS) ([2]; KD ratio class): B (a compound having 3 or more and less than 10 is denoted as B); HRAS/KRAS (ratio of KD value for HRAS to KD value for KRAS) ([3]; KD ratio class): B (a compound having 3 or more and less than 10 is denoted as B)
CCO[C@@H]1C[C@H]2C(=O)NC3(CCC3)C(=O)N(C)[C@@H](C3CCCC3)C(=O)N(C)[C@H](C(=O)N(C)C)CC(=O)N(C)[C@@H](Cc3cccnc3)C(=O)N[C@@H]([C@@H](C)CC)C(=O)N(C)CC(=O)N(C)[C@H]3CCCCN(C3=O)[C@@H](Cc3ccc(C(F)(F)F)cc3)C(=O)N(C)CC(=O)N[C@@H](CCc3cc(F)c(C(F)(F)F)c(F)c3)C(=O)N2C1 [PP0703]		0.013			C (A compound having a KD ratio of 0.1 or more and less than 3 is denoted as C)	B (a compound having 3 or more and less than 10 is denoted as B)	
CC[C@H](C)[C@@H]1NC(=O)[C@H](CC(C)C)N(C)C(=O)C[C@@H](C(=O)N2CCOCC2)N(C)C(=O)[C@H](C2CCCC2)N(C)C(=O)C2(CCCC2)NC(=O)[C@@H]2CCCN2C(=O)[C@H](CCc2ccc(C(F)(F)F)c(Cl)c2)NC(=O)CN(C)C(=O)[C@H](Cc2ccc(OC)cc2)N2CC=CC[C@@H](C2=O)N(C)C(=O)CN(C)C1=O [PP0535]		0.5			C (A compound having a KD ratio of 0.1 or more and less than 3 is denoted as C)	B (a compound having 3 or more and less than 10 is denoted as B)	
CCCN1C(=O)[C@@H]2CCN2C(=O)[C@H](C)N(C)C(=O)[C@H]([C@@H](C)CC)NC(=O)[C@H](CC(C)C)N(C)C(=O)C[C@@H](C(=O)N2CCOCC2)N(C)C(=O)[C@H](C2CCCC2)N(C)C(=O)C2(CCCC2)NC(=O)[C@@H]2CCCN2C(=O)[C@H](CCc2ccc(C(F)(F)F)c(Cl)c2)NC(=O)CN(CC)C(=O)[C@@H]1Cc1ccc(C)cc1 [PP0058] ([NMeL]I[NMeA][Aze][NPrPhe(4-Me)][NEtG][hPhe(3-Cl-4-CF3)]P[Ac5c][NMeGly(cPent)][NMeD]-Morpholide; lactam N-11)		2	C (A compound having a KD ratio of 0.1 or more and less than 3 is denoted as C)	C (A compound having a KD ratio of 0.1 or more and less than 3 is denoted as C)			
CCC[C@H]1C(=O)N[C@@H]([C@@H](C)CC)C(=O)N(C)CC(=O)N(C)[C@H]2C/C=C\CCN(C2=O)[C@@H](Cc2ccc(C(F)(F)F)cc2)C(=O)N(C)CC(=O)N[C@@H](CCc2ccc(CC)c(Cl)c2)C(=O)N2C[C@H](OCC)C[C@H]2C(=O)NC2(CC(C)(C)C2)C(=O)N(C)[C@@H](C2CCCC2)C(=O)N(C)[C@H](C(=O)N(C)C)CC(=O)N1C [PP2848]		0.47					NRAS/KRAS (ratio of KD value with respect to GDP-bound NRAS wild-type protein to KD value with respect to KRAS) ([2]; SPR KD ratio NRAS/KRAS, class symbols): A (a compound having 10 or more and less than 20 is denoted as A); HRAS/KRAS (ratio of KD value with respect to GDP-bound HRAS wild-type protein to KD value with respect to KRAS) ([3]; SPR KD ratio HRAS/KRAS, class symbols): A (a compound having 10 or more and less than 20 is denoted as A)
CCO[C@@H]1C[C@H]2C(=O)NC3(CCC3)C(=O)N(C)[C@@H](C3CCCC3)C(=O)N(C)[C@H](C(=O)N3CCCCC3)CC(=O)N(C)[C@H]3CCCCCCc4ccc(cc4)C[C@@H](C(=O)N(C)CC(=O)N[C@@H](CCc4ccc(C(F)(F)F)c(OC)c4)C(=O)N2C1)N1CC/C=C\C[C@@H](C1=O)N(C)C(=O)CN(C)C(=O)[C@H]([C@@H](C)CC)NC3=O [PP3033, (1S,7S,11R,13S,19S,22S,26S,29S,35S,37Z)-19-cyclopentyl-11-ethoxy-7-[2-[3-methoxy-4-(trifluoromethyl)phenyl]ethyl]-3,18,21,25,31,34-hexamethyl-29-[(1S)-1-methylpropyl]-22-(piperidine-1-carbonyl)spiro[3,6,9,15,18,21,25,28,31,34,41-undecazapentacyclo[24.15.11.2^43,46.1^35,41.0^9,13]pentapentaconta-37,43(54),44,46(53)-tetraene-16,1′-cyclobutane]-2,5,8,14,17,20,24,27,30,33,55-undecone]	0.18		A (a compound having 10 or more and less than 20 is denoted as A)	B (a compound having 3 or more and less than 10 is denoted as B)			
CCC[C@H]1C(=O)N[C@@H]([C@@H](C)CC)C(=O)N(C)CC(=O)N(C)[C@H]2C/C=C\CCN(C2=O)[C@@H](Cc2ccc(C)cc2)C(=O)N(C)CC(=O)N[C@@H](CCc2ccc(C(F)(F)F)c(Cl)c2)C(=O)N2C[C@H](OCC)C[C@H]2C(=O)NC2(CC(C)(C)C2)C(=O)N(C)[C@@H](C(CC)CC)C(=O)N(C)[C@H](C(=O)N(C)C)CC(=O)N1C [PP2146]	0.33		A (a compound having 10 or more and less than 20 is denoted as A)	A (a compound having 10 or more and less than 20 is denoted as A)			
CC[C@H](C)[C@@H]1NC(=O)[C@H](CC(C)C)N(C)C(=O)C[C@@H](C(=O)N2CCOCC2)N(C)C(=O)[C@H](C2CCCC2)N(C)C(=O)C2(CCCC2)NC(=O)[C@@H]2CCCN2C(=O)[C@H](CCc2ccc(C(F)(F)F)c(Cl)c2)NC(=O)CN(C)C(=O)[C@H](Cc2ccc(C)cc2)N2CC/C=C\C[C@@H](C2=O)N(C)C(=O)CN(C)C1=O [PP0461]		0.49			A (a compound having 10 or more and less than 20 is denoted as A)	A (a compound having 10 or more and less than 20 is denoted as A)	
